Results as given in paper PMC9986306, “Beyond CBD: Inhibitory effects of lesser studied phytocannabinoids on human voltage-gated sodium channels” (Frontiers in Physiology, 2023).

What was measured:
Experiment in all cases: Planar patch-clamp, inhibition of peak sodium current (IC50 protocol)
Assay type in all cases: cell-based
Details in all cases: mean ± SEM
[1] = molecular target: T1, human NaV1.2 channel (SCN2A, HEK293T cells) (Homo sapiens, UniProt Q99250)
T1 construct: expressed in transfected cells
Experimental: (§1) HEK293T cells stably expressing SCN1A or SCN2A and CHO cells stably expressing SCN8A or SCN9A were maintained as previously described ([Richards et al., 2018]; [Milligan et al., 2022]).
(§2) Patch-clamp recordings were made using a Patchliner® (Nanion Technologies, Munich, Germany) in the whole-cell configuration as previously described ([Richards et al., 2018]; [Milligan et al., 2022]). Briefly, cells were prepared in suspension at a density of 1 × 10^6-5 × 10^7 cells/mL. The external recording solution comprised (in mM): 140 NaCl, 4 KCl, 1 MgCl2, 2 CaCl2, 5 D-glucose, 10 HEPES, pH 7.4 with NaOH, ∼295 mOsm. The internal recording solution comprised (in mM): 50 CsCl, 60 CsF, 10 NaCl, 20 EGTA, 10 HEPES, pH 7.2 with CsOH, ∼285 mOsm. Medium single-hole planar NPC-16 chips with an average resistance of ∼2.5 MΩ were used. Chip and whole-cell capacitance were fully compensated, and 50% series resistance compensation applied. Recordings were acquired at 50 kHz with the low pass filter set to 10 kHz in PATCHMASTER (HEKA Instruments, NY, United States) and performed at 27°C. Offline analysis was performed using Microsoft Excel, MatLab R2019a (MathWorks) and GraphPad Prism 8 (Molecular Devices).
(§3) To determine half-maximal inhibitory concentrations (IC50), cells were held at −80 mV, stepped to −120 mV for 200 ms followed by 50 ms test depolarization to 0 mV every 2 s for 30 s in the presence of vehicle control (DMSO). The cells were then exposed to an individual phytocannabinoid (CBD, CBGA, CBDVA, CBG, CBCA or CBC) at concentrations between 0.1 and 100 μM, sequentially for 5 min. Currents for individual cells were averaged over 24 s periods directly before application and following a 5 min exposure of compound. Leak subtraction was applied before normalization of current amplitude. Normalized mean data were fit to the Hill equation.

[2] = molecular target: T2, human NaV1.6 channel (SCN8A, CHO cells) (Homo sapiens, UniProt Q9UQD0)
T2 construct: expressed in transfected cells
Experimental: as §1, §2, §3

[3] = molecular target: T3, human NaV1.7 channel (SCN9A, CHO cells) (Homo sapiens, UniProt Q15858)
T3 construct: expressed in transfected cells
Experimental: as §1, §2, §3

[4] = molecular target: T4, human NaV1.1 channel (SCN1A, HEK293T cells) (Homo sapiens, UniProt P35498)
T4 construct: expressed in transfected cells
Experimental: as §1, §2, §3

T2 sequence (Q9UQD0 whole entry): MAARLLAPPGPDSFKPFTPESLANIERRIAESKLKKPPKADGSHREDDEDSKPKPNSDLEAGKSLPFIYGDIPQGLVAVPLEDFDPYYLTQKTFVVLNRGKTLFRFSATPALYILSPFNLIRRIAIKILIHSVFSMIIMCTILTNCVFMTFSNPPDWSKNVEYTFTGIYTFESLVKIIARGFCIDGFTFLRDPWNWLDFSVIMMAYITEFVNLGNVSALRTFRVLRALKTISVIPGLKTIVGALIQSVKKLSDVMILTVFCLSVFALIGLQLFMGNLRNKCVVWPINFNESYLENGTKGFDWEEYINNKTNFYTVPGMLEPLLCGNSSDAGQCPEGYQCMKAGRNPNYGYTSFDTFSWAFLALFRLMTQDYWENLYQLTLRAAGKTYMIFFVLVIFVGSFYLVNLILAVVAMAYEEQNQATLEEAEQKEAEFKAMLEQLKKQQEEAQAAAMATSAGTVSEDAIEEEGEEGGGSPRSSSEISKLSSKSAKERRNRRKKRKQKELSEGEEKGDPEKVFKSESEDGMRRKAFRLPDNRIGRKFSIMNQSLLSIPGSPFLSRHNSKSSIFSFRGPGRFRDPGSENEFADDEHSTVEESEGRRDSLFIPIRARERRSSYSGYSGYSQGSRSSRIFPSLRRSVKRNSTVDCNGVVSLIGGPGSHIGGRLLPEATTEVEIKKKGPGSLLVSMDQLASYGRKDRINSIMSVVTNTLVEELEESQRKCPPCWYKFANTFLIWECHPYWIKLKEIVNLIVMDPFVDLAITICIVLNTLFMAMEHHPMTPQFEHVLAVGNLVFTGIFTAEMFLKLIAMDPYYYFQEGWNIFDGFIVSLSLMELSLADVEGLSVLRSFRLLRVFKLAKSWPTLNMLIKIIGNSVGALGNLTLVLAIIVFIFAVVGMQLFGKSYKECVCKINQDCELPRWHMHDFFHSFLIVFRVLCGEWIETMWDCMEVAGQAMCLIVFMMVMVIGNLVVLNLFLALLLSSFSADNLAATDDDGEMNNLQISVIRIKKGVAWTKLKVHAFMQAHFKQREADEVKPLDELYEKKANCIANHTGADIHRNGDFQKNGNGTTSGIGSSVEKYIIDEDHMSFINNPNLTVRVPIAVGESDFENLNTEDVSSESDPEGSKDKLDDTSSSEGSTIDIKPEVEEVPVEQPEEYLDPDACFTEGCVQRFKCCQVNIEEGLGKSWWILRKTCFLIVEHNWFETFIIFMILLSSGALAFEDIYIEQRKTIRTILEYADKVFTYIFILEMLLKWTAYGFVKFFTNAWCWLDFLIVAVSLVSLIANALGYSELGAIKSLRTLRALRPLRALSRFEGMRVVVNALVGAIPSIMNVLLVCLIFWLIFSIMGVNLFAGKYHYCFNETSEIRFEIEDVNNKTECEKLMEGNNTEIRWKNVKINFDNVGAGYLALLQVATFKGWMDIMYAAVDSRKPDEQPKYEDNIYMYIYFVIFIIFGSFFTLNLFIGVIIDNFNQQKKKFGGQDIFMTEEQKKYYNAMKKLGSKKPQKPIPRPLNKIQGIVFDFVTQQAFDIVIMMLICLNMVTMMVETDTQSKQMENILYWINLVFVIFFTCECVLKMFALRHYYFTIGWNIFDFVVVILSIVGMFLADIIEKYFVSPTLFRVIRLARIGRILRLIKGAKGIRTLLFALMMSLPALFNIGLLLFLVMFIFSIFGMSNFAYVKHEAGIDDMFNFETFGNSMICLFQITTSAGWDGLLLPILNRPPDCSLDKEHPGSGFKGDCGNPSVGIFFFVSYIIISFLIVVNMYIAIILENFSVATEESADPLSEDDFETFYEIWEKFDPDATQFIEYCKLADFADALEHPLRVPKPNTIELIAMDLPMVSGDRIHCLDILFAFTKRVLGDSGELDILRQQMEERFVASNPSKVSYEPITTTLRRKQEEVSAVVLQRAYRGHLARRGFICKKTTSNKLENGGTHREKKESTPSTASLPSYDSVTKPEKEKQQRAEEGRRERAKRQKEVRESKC
T3 sequence (Q15858 whole entry): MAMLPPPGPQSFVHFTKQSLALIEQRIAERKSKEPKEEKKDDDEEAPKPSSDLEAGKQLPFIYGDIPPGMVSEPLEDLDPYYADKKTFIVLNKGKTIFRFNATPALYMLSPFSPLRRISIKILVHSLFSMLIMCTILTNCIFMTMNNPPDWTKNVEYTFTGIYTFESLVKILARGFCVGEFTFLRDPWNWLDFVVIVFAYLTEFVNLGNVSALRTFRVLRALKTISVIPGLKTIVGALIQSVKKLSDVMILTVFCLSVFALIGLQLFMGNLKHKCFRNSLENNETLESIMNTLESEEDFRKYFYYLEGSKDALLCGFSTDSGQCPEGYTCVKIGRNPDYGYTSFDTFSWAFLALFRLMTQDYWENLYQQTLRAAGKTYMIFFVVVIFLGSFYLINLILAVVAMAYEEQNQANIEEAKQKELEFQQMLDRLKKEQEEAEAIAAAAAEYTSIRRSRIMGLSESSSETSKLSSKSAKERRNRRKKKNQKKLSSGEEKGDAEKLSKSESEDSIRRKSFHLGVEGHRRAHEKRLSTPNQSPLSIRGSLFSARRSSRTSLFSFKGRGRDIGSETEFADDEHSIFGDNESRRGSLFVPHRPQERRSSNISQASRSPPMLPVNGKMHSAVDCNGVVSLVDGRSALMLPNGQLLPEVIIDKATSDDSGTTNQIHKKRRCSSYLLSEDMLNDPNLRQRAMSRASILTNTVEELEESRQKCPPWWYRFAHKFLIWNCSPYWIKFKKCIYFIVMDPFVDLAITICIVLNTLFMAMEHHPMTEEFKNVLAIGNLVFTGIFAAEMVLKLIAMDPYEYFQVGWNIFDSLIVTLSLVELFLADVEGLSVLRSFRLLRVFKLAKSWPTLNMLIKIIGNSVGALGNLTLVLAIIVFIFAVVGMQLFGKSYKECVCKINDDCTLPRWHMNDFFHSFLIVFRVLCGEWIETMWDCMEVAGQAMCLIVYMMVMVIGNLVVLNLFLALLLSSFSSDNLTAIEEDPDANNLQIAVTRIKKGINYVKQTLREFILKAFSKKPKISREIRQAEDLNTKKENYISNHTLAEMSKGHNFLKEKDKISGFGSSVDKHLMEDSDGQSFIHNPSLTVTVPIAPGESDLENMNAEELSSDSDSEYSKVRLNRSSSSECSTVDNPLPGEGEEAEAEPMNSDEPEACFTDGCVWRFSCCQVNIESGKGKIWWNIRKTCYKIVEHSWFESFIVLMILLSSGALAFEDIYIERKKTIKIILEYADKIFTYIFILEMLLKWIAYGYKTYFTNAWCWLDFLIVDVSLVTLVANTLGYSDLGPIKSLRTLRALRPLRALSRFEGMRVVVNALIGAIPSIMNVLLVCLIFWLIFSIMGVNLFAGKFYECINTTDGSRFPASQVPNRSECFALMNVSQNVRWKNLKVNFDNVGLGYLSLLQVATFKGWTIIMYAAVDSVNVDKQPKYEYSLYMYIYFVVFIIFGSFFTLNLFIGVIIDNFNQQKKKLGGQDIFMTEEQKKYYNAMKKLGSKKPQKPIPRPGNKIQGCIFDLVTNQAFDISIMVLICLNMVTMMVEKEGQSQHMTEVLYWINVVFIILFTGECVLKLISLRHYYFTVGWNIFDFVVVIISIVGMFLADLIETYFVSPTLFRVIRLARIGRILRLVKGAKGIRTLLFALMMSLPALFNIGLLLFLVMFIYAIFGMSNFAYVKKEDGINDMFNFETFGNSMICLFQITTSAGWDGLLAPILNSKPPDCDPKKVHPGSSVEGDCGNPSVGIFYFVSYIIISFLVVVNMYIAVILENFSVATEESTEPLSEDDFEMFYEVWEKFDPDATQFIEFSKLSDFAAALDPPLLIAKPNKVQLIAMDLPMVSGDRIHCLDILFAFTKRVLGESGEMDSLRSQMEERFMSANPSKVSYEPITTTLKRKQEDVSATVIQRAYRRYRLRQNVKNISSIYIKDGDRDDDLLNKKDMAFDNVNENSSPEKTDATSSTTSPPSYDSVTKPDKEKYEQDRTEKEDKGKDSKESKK

`CCCCCc1cc(O)c(C/C=C(\C)CCC=C(C)C)c(O)c1C(=O)O` [CBGA, cannabigerolic acid] was tested, and the “Slope (Hill slope coefficient)” value ([1]; NaV1.2 concentration-response) was 2.2 ± 0.4, the IC50 ([1]; NaV1.2 peak current, 0.1–100 µM, 5 min exposure) was 14.7 ± 1.1 µM and the “Slope (Hill slope coefficient)” value ([2]; NaV1.6 concentration-response) was 2.3 ± 0.6. The IC50 ([2]; NaV1.6 peak current, 0.1–100 µM, 5 min exposure) was 12 ± 1.2 µM, the “Slope (Hill slope coefficient)” value ([3]; NaV1.7 concentration-response) was 2.5 ± 0.4 and the IC50 ([3]; NaV1.7 peak current, 0.1–100 µM, 5 min exposure) was 16.4 ± 1.1 µM. The “Slope (Hill slope coefficient)” value ([4]; NaV1.1 concentration-response) was 2.6 ± 0.5 and the IC50 ([4]; NaV1.1 peak current, 0.1–100 µM, 5 min exposure) was 13.6 ± 1.1 µM.
